The values that follow come from ChEMBL document CHEMBL3120134, “A review of non-nucleoside anti-hepatitis B virus agents” (Eur J Med Chem, 2014).

Structures are written as SMILES.

Data set [1] concerns Hepatitis B virus. Description: Antiviral activity against Hepatitis B virus infected in human HepG2.2.15 cells assessed as decrease in HBV surface antigen secretion. It counts as functional, organism-based, HepG2 2.2.15. As to conditions: for IC50: Hepatitis B virus, HepG2 2.2.15.
Data set [2] has as its system Hepatitis B virus. Description: Antiviral activity against Hepatitis B virus. Format: functional, organism-based.
Data set [3] in a line: Selectivity index, ratio of cytotoxicity towards human HepG2.2.15 cells to IC50 for HBV DNA production. It counts as toxicity, cell-based. As to conditions: read-out: Selectivity Index.
The subject of data set [4] is Hepatitis B virus. Description: Antiviral activity against Hepatitis B virus assessed as inhibition of Hepatitis B virus DNA replication. Format: functional, organism-based.
Data set [5] has as its system Hepatitis B virus. Description: Antiviral activity against Hepatitis B virus infected in human HepG2.2.15 cells assessed as decrease in HBV DNA production. It counts as functional, organism-based. As to conditions: HepG2 2.2.15.
For data set [6], the system named is Hepatitis B virus. Nature of the data set: Antiviral activity against Hepatitis B virus infected in human HepG2.2.15 cells assessed as decrease in HBV surface antigen secretion after 21 days. Format: functional, organism-based. As to conditions: HepG2 2.2.15, 504 h.
Data set [7] is described as follows: Selectivity index, ratio of cytotoxicity towards human HepG2.2.15 cells to IC50 for HBV e antigen secretion. Format: toxicity, cell-based. As to conditions: read-out: Selectivity Index.
The nature of data set [8]: Selectivity index, ratio of cytotoxicity towards human HepG2.2.15 cells to IC50 for HBV surface antigen secretion. It counts as toxicity, cell-based. As to conditions: read-out: Selectivity Index.
In another data set the test system is Duck hepatitis B virus. Nature of the data set: Antiviral activity against Duck Hepatitis B virus infected in duckling assessed as decrease in DHBV level in serum at 120 mg/kg dosed through liquid diet for 10 days administered started on day 7 post-infection. It counts as functional.
The test system of data set [9] is Hepatitis B virus. Nature of the data set: Antiviral activity against Hepatitis B virus infected in human HepG2.2.15 cells assessed as decrease in HBV e antigen secretion at 200 ug/ml after 9 days by ELISA. It counts as functional. As to conditions: HepG2 2.2.15, 216 h.
For data set [10], the system named is Hepatitis B virus. Nature of the data set: Antiviral activity against Hepatitis B virus infected in human HepG2.2.15 cells assessed as decrease in HBV surface antigen secretion at 200 ug/ml after 9 days by ELISA. Conditions: HepG2 2.2.15, 216 h. Format: functional.
For data set [11], the system named is Hepatitis B virus. Description: Antiviral activity against Hepatitis B virus infected in human HepG2.2.15 cells assessed as decrease in HBV e antigen secretion. It counts as functional, organism-based, HepG2 2.2.15.
The test system of data set [12] is Hepatitis B virus. Nature of the data set: Antiviral activity against Hepatitis B virus infected in human Huh7 cells assessed as inhibition of HBV particles production. Conditions: Huh-7. It counts as functional, organism-based.
Data set [13] deals with Hepatitis B virus. Nature of the data set: Antiviral activity against Hepatitis B virus assessed as inhibition of Hepatitis B virus surface antigen secretion. It counts as functional, organism-based.
Data set [14] has as its system Hepatitis B virus. Nature of the data set: Antiviral activity against Hepatitis B virus assessed as inhibition of Hepatitis B virus e antigen secretion. Format: functional, organism-based.

What is called IC50 is the concentration at which inhibition is half-maximal. Take `C=C(C)[C@H](O)[C@@H](O)C[C@@H](C)C1=C2C[C@H](O)[C@H]3[C@@]4(C)CCC(=O)C(C)(C)[C@@H]4CC[C@]3(C)[C@@]2(C)CC1`: the IC50 in the data set with Hepatitis B virus [1] stood at 600 nM.

Broadly, the EC50 is the concentration that produces a half-maximal response. High values mean a need for much substance, low ones an effect from little substance. In turn, `CC(=O)Oc1ccccc1C(=O)Nc1ncc([N+](=O)[O-])s1` [NITAZOXANIDE] displayed an EC50 in the data set on Hepatitis B virus [2] of 120 nM.

In the case of `C[C@@H]1C[C@@H]([C@@H](O)C(C)(C)O)O[C@H]2C[C@@]3(C)C(=C12)C[C@H](O)[C@H]1[C@@]2(C)CCC(=O)C(C)(C)[C@@H]2CC[C@@]13C`, the IC50 in the data set on Hepatitis B virus [1] stood at 600 nM.

As for `CC(=O)O[C@H]([C@@H](O)C[C@@H](C)C1=C2C[C@H](O)[C@H]3[C@@]4(C)CCC(=O)C(C)(C)[C@@H]4CC[C@]3(C)[C@@]2(C)CC1)C(C)(C)O`, the concentration for half-maximal inhibition (IC50) in the data set with Hepatitis B virus [1] is 600 nM.

With `Nc1ccn([C@@H]2CS[C@H](CO)O2)c(=O)n1` [LAMIVUDINE], the selectivity ratio in [3] worked out at 7. For the same molecule, the 50% inhibitory concentration (IC50) came to 260 nM in the data set on Hepatitis B virus [4] and 343000 nM in the data set on Hepatitis B virus [5].

In the case of `O=C(Nc1ncc(Br)s1)c1ccccc1O`, in the data set on Hepatitis B virus [2], a half-maximal response (EC50) required 120 nM.

For `C[C@@H]1CC[C@H]2[C@@H](C)C(=O)O[C@@H]3O[C@@]4(C)CC[C@@H]1[C@]32OO4` [ARTEMISININ], the IC50 in the data set on Hepatitis B virus [6] turned out to be 55000 nM.

In the case of `Cc1cc(O)c2c(c1)C(=O)c1cccc(O[C@@H]3O[C@H](CO)[C@@H](O)[C@H](O)[C@H]3O)c1C2=O` [PULMATIN], the selectivity ratio in [7], in data set [3] and in data set [8] was more than 42 in each case.

By inhibition in vivo is commonly meant the relative decrease from the control value, in per cent. By inhibition is commonly meant the relative decrease from the control value, in per cent. On to `CC(C)(O)[C@@H]1CC[C@](C)([C@H]2[C@@H](O)C[C@@]3(C)[C@@H]4C[C@H](O[C@@H]5O[C@H](CO)[C@@H](O)[C@H](O)[C@H]5O)[C@H]5C(C)(C)[C@@H](O[C@@H]6OC[C@@H](O)[C@H](O)[C@H]6O)CC[C@@]56C[C@@]46CC[C@]23C)O1`, for which the inhibition in vivo at 120 mg/kg in the data set on Duck hepatitis B virus amounted to 64%. Moreover, the inhibition at 200 µg/mL stood at 23.3% in the data set on Hepatitis B virus [9] and 31.8% with Hepatitis B virus [10].

For the molecule `CCN(CC)Cc1c(O)c(OC)cc2nc3c(cc12)CSc1ccc(C)cc1-3`, the concentration for half-maximal inhibition (IC50) with Hepatitis B virus [5] was less than 10000 nM.

For `CCN(CC)Cc1c(O)c(OC)cc2nc3c(cc12)CSc1cc(F)ccc1-3`, the IC50 with Hepatitis B virus [5] is less than 10000 nM.

Take `COc1ccc2c(c1)-c1nc3c(CN4CCCCC4)c(O)c(OC)cc3cc1CS2`: the half-inhibitory concentration (IC50) in the data set on Hepatitis B virus [5] was less than 10000 nM.

For the molecule `COc1cc2cc3c(nc2c(CN2CCCCC2)c1O)-c1ccc(F)cc1SC3`, the half-maximal inhibitory concentration (IC50) in the data set on Hepatitis B virus [5] is less than 10000 nM.

For the molecule `COC(=O)c1nc(-c2csc([C@@H](NC(=O)c3cccs3)C(C)C)n2)oc1C`, the IC50 with Hepatitis B virus [4] worked out at 76400 nM.

As for `CCOC(=O)c1c(CS(=O)(=O)c2cccc(OC)c2)n(C)c2ccc(O)c(CN3CCCC3)c12`, the half-inhibitory concentration (IC50) in the data set with Hepatitis B virus [2] is less than 60 µg/mL.

In the case of `COC(=O)c1nc(-c2nccs2)sc1CC(C)C`, the 50% inhibitory concentration (IC50) in the data set on Hepatitis B virus [4] was determined as 2400 nM.

Regarding `COc1cc2c(cc1O)CC[n+]1cc3c4c(ccc3c(C)c1-2)OCO4.[OH-]`, the entries for the “inhibition (INH)” value in the data set on Hepatitis B virus [1] and in the data set with Hepatitis B virus [11] were 50% and 40%, respectively.

In the case of `O=C1NCc2c1cc1ccc3c(c1c2-c1ccc2c(c1)OCO2)OCO3`, in the data set with Hepatitis B virus [2], the response was half-maximal at 80 nM (EC50).

On to `Cc1oc2nc1C(=O)N[C@@H](C)c1nc(co1)C(=O)N[C@@H](CC(C)C)C(=O)N1CCC[C@H]1C(=O)N[C@@H](C(C)C)c1nc-2cs1` [LEUCAMIDE A], for which the IC50 with Hepatitis B virus [4] was 76400 nM.

Turning to `Cc1ccc(-c2nnc3sc(CN)cn23)cc1`, the IC50 in the data set on Hepatitis B virus [2] is 35000 nM.

Consider `COC(=O)C1=C(C)NC(c2nccs2)=N[C@H]1c1ccc(F)cc1Cl`, for which the concentration for half-maximal inhibition (IC50) in the data set with Hepatitis B virus [4] was determined as 30 nM.

As for `Nn1c(SC(c2ccccc2)c2ccccc2)nnc1-c1ccc(Cl)cc1`, the IC50 with Hepatitis B virus [2] is 40000 nM.

On to `CCOC(=O)c1nc(-c2nccs2)sc1CC(C)C`, for which, in the data set on Hepatitis B virus [4], the 50% inhibitory concentration (IC50) is 1100 nM.

Turning to `COc1cc2cc3c(nc2c(CN2CCCC2)c1O)-c1ccc(C)cc1SC3`, the half-inhibitory concentration (IC50) with Hepatitis B virus [5] is less than 10000 nM.

For `Cc1cc(C)n2nc(S)nc2c1`, the IC50 in the data set with Hepatitis B virus [12] is 120 nM.

Take `COc1ccc2c(c1OC)CN(C)c1c-2ccc2cc3c(cc12)OCO3` [DIHYDROCHELERYTHRINE]: the 50% inhibitory concentration (IC50) in the data set with Hepatitis B virus [13] and in the data set on Hepatitis B virus [14] was less than 50 nM throughout.

With `Cc1ccc(C(=O)Nc2ncc(Cl)s2)c(O)c1`, the EC50 in the data set with Hepatitis B virus [2] amounted to 120 nM.
